Test results as given in ChEMBL document CHEMBL1133269, “4-Alkylidenyl glutamic acids, potent and selective GluR5 agonists” (Bioorg Med Chem Lett, 2000).
Active and inactive are the calls of the source. The calls are words filed in the database; no cut-off is given here.

What was measured:
[1] = biological target: T1, Glutamate receptor ionotropic, kainate 2 (Homo sapiens, UniProt Q13002); test: biochemical
Description: Binding affinity of compound was determined against Ionotropic glutamate receptor ionotropic kainate 2 using cell membranes prepared from HEK293 cells

[2] = biological target: T1, Glutamate receptor ionotropic, kainate 2; test: Compound was tested for agonistic activity at Glutamate receptor 6 using HEK293 cells; type: functional, cell-based
Glutamate receptor 2 = Glutamate receptor 2 (Homo sapiens, UniProt P42262); test: Binding affinity of compound was determined against Ionotropic glutamate receptor AMPA 2 using cell membranes prepared from HEK293 cells
Glutamate receptor 4 = Glutamate receptor 4 (Homo sapiens, UniProt P48058); test: biochemical
Description: Binding affinity of compound was determined against Ionotropic glutamate receptor AMPA 4 using cell membranes prepared from HEK293 cells

[3] = biological target: T2, Glutamate receptor ionotropic, kainate 5 (Homo sapiens, UniProt Q16478); test: Binding affinity of compound was determined against Glutamate receptor (KA2) using cell membranes prepared from HEK293 cells
T2 sequence (Q16478 whole entry): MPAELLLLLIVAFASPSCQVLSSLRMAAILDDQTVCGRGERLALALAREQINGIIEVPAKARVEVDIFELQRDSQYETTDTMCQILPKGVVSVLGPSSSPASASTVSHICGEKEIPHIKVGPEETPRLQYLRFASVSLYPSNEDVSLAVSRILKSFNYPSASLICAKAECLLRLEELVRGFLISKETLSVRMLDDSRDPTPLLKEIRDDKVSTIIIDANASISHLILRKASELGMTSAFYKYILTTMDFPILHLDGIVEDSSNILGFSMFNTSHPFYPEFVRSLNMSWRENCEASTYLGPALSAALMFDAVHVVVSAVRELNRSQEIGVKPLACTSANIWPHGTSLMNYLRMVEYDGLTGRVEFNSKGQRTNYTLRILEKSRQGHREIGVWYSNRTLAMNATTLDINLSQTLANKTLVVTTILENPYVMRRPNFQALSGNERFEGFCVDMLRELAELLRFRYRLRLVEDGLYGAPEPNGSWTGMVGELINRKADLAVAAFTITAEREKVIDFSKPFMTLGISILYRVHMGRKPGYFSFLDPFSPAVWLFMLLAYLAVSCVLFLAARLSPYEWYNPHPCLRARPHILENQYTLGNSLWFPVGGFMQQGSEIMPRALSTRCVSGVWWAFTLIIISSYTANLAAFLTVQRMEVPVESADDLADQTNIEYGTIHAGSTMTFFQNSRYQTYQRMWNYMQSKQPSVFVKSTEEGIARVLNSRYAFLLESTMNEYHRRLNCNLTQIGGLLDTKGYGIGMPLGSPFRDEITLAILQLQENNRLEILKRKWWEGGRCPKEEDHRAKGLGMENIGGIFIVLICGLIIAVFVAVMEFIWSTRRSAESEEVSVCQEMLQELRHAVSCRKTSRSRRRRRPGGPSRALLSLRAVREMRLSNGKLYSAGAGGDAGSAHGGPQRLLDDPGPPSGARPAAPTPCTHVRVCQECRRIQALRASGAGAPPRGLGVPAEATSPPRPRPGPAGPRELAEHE

Glutamate receptor 1 = Glutamate receptor 1 (Homo sapiens, UniProt P42261); test: biochemical
Description: Binding affinity of compound was determined against Ionotropic glutamate receptor AMPA 1 using cell membranes prepared from HEK293 cells

[4] = Selectivity of compound was determined as the ratio of Ki of Glutamate receptor 6 to that of Glutamate receptor 5
[5] = biological target: Glutamate receptor ionotropic, kainate 1 (Homo sapiens, UniProt P39086); test: biochemical
Description: Binding affinity of compound was determined against Ionotropic glutamate receptor ionotropic kainate 1 using cell membranes prepared from HEK293 cells

[6] = biological target: T2, Glutamate receptor ionotropic, kainate 5; test: Binding affinity of compound was determined against KA2 using cell membranes prepared from HEK293 cells
[7] = biological target: T1, Glutamate receptor ionotropic, kainate 2; test: Agonistic activity of compound on Glutamate receptor 6 using cell membranes prepared from HEK293 cells was expressed as percentage Rmax; ne means no effect; type: functional, cell-based

Glutamate receptor 4, sequence (P48058 whole entry): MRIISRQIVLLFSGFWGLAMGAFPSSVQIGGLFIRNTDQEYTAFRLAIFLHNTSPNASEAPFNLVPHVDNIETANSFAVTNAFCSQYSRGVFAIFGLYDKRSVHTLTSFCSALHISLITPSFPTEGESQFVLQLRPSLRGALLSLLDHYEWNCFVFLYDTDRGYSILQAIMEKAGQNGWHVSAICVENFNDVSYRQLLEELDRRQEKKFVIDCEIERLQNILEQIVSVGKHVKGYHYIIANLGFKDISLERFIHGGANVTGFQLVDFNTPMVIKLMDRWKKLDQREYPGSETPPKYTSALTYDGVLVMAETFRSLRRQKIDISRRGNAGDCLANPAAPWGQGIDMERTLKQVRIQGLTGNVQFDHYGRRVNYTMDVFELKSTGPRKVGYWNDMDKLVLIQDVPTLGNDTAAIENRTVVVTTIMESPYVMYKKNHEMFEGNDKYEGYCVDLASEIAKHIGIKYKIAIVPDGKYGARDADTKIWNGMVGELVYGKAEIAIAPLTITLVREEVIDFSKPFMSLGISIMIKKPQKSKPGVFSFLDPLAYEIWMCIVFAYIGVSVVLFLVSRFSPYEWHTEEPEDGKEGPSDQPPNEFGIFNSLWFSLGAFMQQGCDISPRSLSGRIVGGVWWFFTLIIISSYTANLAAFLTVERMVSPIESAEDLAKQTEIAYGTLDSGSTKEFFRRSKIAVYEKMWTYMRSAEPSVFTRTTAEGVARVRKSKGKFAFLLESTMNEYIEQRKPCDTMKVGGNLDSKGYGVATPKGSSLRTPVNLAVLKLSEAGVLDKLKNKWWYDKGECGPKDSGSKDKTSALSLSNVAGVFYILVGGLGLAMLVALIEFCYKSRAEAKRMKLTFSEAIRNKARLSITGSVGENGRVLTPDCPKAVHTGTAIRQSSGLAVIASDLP
T1 sequence (Q13002 whole entry): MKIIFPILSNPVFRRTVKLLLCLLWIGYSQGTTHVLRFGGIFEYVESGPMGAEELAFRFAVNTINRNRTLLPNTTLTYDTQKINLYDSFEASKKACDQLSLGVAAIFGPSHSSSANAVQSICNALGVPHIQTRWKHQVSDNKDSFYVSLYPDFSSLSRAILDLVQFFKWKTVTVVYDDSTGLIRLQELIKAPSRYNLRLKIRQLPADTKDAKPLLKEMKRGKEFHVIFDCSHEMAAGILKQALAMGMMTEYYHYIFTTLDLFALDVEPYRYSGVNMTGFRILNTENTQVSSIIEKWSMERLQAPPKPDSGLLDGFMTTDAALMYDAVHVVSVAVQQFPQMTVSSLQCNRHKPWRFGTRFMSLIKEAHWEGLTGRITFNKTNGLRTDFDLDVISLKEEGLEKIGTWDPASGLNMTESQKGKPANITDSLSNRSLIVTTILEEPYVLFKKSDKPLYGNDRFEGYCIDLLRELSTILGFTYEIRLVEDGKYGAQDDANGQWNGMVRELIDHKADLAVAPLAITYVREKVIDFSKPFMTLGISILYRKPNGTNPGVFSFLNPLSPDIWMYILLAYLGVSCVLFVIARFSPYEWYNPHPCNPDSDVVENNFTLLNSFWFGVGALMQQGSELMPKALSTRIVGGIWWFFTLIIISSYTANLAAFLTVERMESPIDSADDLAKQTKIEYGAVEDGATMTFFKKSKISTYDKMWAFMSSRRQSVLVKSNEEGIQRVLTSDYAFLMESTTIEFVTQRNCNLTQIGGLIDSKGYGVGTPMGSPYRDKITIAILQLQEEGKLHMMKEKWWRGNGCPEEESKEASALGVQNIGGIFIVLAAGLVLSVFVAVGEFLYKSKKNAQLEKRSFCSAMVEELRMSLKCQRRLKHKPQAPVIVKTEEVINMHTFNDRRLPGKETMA
Glutamate receptor 2, sequence (P42262 whole entry): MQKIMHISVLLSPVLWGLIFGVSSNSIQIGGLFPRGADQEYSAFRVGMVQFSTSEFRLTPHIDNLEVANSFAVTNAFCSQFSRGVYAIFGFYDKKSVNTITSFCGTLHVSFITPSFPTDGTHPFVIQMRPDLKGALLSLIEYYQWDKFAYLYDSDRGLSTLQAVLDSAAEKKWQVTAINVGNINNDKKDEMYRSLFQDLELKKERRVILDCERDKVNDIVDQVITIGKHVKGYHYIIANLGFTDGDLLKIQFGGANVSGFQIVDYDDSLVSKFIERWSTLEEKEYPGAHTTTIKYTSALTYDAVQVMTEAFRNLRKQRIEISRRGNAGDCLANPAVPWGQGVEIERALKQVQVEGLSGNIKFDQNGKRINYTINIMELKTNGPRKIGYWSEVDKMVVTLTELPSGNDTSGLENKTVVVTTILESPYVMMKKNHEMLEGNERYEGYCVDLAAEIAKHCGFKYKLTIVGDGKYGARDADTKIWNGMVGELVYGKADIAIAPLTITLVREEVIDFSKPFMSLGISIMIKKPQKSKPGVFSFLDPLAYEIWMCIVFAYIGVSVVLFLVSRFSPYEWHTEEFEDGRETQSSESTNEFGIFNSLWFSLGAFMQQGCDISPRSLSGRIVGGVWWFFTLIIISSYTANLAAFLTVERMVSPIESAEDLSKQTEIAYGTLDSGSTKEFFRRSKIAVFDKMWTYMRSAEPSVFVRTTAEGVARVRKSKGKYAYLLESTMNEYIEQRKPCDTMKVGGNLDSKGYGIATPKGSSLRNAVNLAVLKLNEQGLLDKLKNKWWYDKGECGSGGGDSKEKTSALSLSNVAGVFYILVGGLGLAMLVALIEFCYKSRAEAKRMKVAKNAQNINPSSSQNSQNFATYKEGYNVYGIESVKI
Glutamate receptor 1, sequence (P42261 whole entry): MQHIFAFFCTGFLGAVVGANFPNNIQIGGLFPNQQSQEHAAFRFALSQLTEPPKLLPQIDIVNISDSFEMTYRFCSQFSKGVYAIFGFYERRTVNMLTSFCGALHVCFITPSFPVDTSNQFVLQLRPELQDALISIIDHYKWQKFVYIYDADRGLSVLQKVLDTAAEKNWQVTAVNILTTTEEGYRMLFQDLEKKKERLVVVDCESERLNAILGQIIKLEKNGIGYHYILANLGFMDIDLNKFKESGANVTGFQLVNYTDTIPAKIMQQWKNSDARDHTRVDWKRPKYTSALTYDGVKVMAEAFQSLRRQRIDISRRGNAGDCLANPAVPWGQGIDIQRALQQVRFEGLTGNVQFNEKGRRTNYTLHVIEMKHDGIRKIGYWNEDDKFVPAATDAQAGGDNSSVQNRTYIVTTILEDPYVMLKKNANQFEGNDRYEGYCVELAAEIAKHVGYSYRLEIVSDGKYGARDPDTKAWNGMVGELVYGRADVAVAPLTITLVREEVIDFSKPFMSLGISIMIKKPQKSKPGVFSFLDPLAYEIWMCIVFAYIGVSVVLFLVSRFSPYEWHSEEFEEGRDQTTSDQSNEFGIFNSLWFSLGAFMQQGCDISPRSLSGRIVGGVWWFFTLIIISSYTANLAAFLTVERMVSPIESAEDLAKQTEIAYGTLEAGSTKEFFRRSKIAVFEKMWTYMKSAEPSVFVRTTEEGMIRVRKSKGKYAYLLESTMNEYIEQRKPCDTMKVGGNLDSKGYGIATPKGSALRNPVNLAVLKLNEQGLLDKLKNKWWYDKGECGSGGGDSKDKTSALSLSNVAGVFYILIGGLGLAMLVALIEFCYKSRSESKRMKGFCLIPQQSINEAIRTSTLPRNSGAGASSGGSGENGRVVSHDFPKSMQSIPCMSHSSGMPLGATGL
Glutamate receptor ionotropic, kainate 1, sequence (P39086 whole entry): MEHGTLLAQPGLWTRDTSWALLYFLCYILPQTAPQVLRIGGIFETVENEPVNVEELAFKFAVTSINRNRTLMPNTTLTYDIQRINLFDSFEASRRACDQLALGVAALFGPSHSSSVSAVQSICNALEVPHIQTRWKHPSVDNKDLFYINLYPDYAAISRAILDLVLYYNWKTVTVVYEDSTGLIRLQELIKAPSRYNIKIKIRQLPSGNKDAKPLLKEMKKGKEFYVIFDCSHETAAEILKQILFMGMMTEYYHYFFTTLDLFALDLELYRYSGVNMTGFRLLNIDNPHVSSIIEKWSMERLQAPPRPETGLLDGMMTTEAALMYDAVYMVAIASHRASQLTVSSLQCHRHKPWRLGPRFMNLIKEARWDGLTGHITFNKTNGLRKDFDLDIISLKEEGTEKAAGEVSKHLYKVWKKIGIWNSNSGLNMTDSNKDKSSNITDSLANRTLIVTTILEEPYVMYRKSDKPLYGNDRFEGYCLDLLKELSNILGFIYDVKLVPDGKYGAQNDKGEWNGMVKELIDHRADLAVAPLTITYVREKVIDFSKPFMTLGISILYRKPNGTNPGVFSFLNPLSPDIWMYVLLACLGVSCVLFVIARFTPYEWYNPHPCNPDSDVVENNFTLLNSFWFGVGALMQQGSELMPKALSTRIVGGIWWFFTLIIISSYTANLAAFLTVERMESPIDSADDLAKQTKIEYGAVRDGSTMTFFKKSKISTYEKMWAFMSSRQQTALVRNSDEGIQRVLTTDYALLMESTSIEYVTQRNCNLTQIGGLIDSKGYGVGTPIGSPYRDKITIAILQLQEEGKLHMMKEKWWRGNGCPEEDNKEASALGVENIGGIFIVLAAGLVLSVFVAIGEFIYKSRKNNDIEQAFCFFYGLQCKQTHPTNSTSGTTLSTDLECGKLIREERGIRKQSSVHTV

| Compound | Ki [1] [µM] | Ratio [4] | Ki [5] [µM] | other results |
| --- | --- | --- | --- | --- |
| CCC/C=C(/C[C@H](N)C(=O)O)C(=O)O | 57.2 | – | – | – |
| CC/C=C(/C[C@H](N)C(=O)O)C(=O)O | 18 | – | – | EC50 [2]: > 300 µM |
| CC(C)/C=C(/C[C@H](N)C(=O)O)C(=O)O | > 500 | – | – | Ki (Glutamate receptor 2): 44.9 µM; Ki (Glutamate receptor 4): 10.3 µM; Ki [3]: 82.2 µM; Ki (Glutamate receptor 1): 113 µM |
| N[C@@H](C/C(=C/CCC(c1ccccc1)c1ccccc1)C(=O)O)C(=O)O | > 10 | 10 | > 1 | – |
| C=C(C)[C@H]1CN[C@H](C(=O)O)[C@H]1CC(=O)O [KAINIC ACID] | – | – | – | Ki [3]: 0.08 µM |
| CCCC/C=C(/C[C@H](N)C(=O)O)C(=O)O | 125 | – | – | – |
| CC(C)=C(C[C@H](N)C(=O)O)C(=O)O | > 400 | > 28.8 | 13.9 | – |
| N[C@@H](C/C(=C\C1CCCCC1)C(=O)O)C(=O)O | > 100 | > 16.5 | 6.06 | – |
| CCC(CC)=C(C[C@H](N)C(=O)O)C(=O)O | 207 | – | – | Ki (Glutamate receptor 2): 281 µM; Ki (Glutamate receptor 4): 4.71 µM; Ki [3]: 21.4 µM; Ki (Glutamate receptor 1): > 100 µM |
| N[C@@H](C/C(=C\c1ccc(Cl)cc1)C(=O)O)C(=O)O | 193 | – | – | – |
| C/C=C(/C[C@H](N)C(=O)O)C(=O)O | 2.5 | 1.14 | 2.2 | – |
| N[C@@H](CC(C(=O)O)=C1CCCC1)C(=O)O | > 100 | – | – | Ki (Glutamate receptor 2): 3.68 µM; EC50 [2]: > 100 µM; Ki (Glutamate receptor 4): 0.533 µM; Rmax [7]: inactive; Ki [3]: 10 µM; Ki (Glutamate receptor 1): 1.1 µM |
| CC1(C)CCC/C1=C(/C[C@H](N)C(=O)O)C(=O)O | > 100 | > 424 | 0.236 | – |
| CC(C)(C)/C=C(\C[C@H](N)C(=O)O)C(=O)O | > 100 | – | – | – |
| N[C@@H](CC(C(=O)O)=C1CCC1)C(=O)O | > 100 | – | – | – |
| C=C(C[C@H](N)C(=O)O)C(=O)O | 0.45 | – | – | – |
| N[C@@H](C[C@@H](C/C=C/c1ccc2ccccc2c1)C(=O)O)C(=O)O | – | – | – | Ki (Glutamate receptor 2): > 10 µM; Ki (Glutamate receptor 1): > 10 µM |

Now from value to molecule, other results behind:

| Ki [1] [µM] | Ratio [4] | Ki [5] [µM] | Compound | other results |
| --- | --- | --- | --- | --- |
| 205 | – | – | N[C@@H](C/C(=C\CCc1ccccc1)C(=O)O)C(=O)O | – |
| 87.6 | – | – | N[C@@H](C/C(=C\C1CCCC1)C(=O)O)C(=O)O | – |
| > 100 | 100 | > 1 | N[C@@H](C/C(=C\CCC(c1ccccc1)c1ccccc1)C(=O)O)C(=O)O | – |
| 634 | – | – | CC(C)C/C=C(\C[C@H](N)C(=O)O)C(=O)O | – |
| 82.5 | – | – | CC(C)/C=C(\C[C@H](N)C(=O)O)C(=O)O | Ki (Glutamate receptor 2): 3.7 µM; Ki [6]: 7.5 µM; Ki (Glutamate receptor 4): 5.6 µM; Ki (Glutamate receptor 1): 0.7 µM |
| > 100 | – | – | N[C@@H](C/C(=C\C=C\c1ccccc1)C(=O)O)C(=O)O | – |
| 255 | 49.7 | 5.13 | N[C@@H](CC(C(=O)O)=C1CCCCC1)C(=O)O | – |
| 16.3 | – | – | C/C=C/C=C(/C[C@H](N)C(=O)O)C(=O)O | – |
| 46.3 | 12.8 | 3.62 | CC1(C)CCC/C1=C(\C[C@H](N)C(=O)O)C(=O)O | – |
